Test results as given in US20110159504A1, “METHYLATION MARKERS FOR SENSITIVITY TO MICROTUBE BASED THERAPIES AND METHODS OF USE” (THE JOHNS HOPKINS UNIVERSITY, priority 2008, published 2011).
Entries after “also recorded” stand apart in the source; their conditions may differ.

Columns and labels:
[1] = system: advanced localized esophageal cancer; test: Response (pCR) and overall survival of esophageal cancer patients after neoadjuvant chemoradiotherapy and surgery, by CHFR methylation status; format: in vivo, human; details: for Overall survival when CHFR methylation present vs. absent: paclitaxel n=31, docetaxel n=18, Kaplan-Meier; for Overall survival, docetaxel vs. paclitaxel: taxane-based therapy, N=49
Protocol: Endoscopic tumor biopsy specimens were studied from 81 patients with advanced localized esophageal cancer scheduled to undergo neoadjuvant chemoradiotherapy and surgery at the Johns Hopkins Hospital (JHH) between January 1995 and January 2007. Forty-nine patients were treated with taxane based combination chemoradiotherapy. Pretreatment esophageal tumor tissue from endoscsopic biopsy was initially available from JHH for twenty-one patients treated with taxanes. After an analysis of these initial 21 patients, IRB permission was obtained to request further biopsy specimens from referring endoscopy centers for patients subsequently treated at Johns Hopkins Hospital. This allowed analysis of pretreatment endoscopic tumor biopsies from an additional 28 patients treated with taxanes and 32 patients treated with non-taxane regimens. […] Of the forty-nine taxane-treated patients, thirty-one received paclitaxel containing combinations, while eighteen received a docetaxel-based combination shown in the Table below.
Response to preoperative chemoradiotherapy was based on pathology of the resected esophagus and nodal tissue specimen and classified as either pathologic complete response (pCR) or non-pCR, where pCR is the complete absence of intact tumor cells in surgical pathology specimens. We verified histological results and deaths during follow-up by re-examining original hospital records. This study was approved by the Johns Hopkins Institutional Review Board.
Methylation of CHFR was determined by detecting analyte (CHFR and ACTS) with real-time MSP using molecular beacons. These consisted of parallel amplification/quantification using specific primer and detector pairs for each analyte using the iCycler (BioRad Laboratories, Hercules, Calif.). […] Duplicate PCR amplifications were analyzed using iQuant 3.0 software (BioRad), exported as Ct values, and used to calculate copy numbers based on a linear regression of values plotted on a standard curve of 20-2×10^6 gene copy equivalents of plasmid DNA containing bisulfite modified CHFR. CHFR copy numbers were divided by ACTB copy numbers for each sample to normalize for DNA quality and quantity, multiplied by 100 for convenience to determine the ratio-value. […]
Based upon findings from the initial 21 patients treated with taxanes and 40% methylation prevalence, the study size necessary to detect a hazard ratio of death of 3.00 for unmethylated CHFR was estimated. […] The primary endpoint was time to death or censor measured from the origin date of pretreatment endoscopic biopsy. […] Associations between clinical response and CHFR methylation were assessed using logistic regression. […] Statistical comparisons and survival between groups were analyzed using the log-rank test. […]

[2] = system: CHFR expression in esophageal cancer cell lines; test: CHFR expression by RT-PCR in esophageal cancer cell lines after treatment with demethylating agent; format: cell-based; details: for Expression of CHFR (RNA level, RT-PCR) in CHFR-methylated cell lines: KYSE150 and KYSE510, no expression at baseline, 72 hour treatment
Source text: A) Methylation-specific PCR (MSP) of the CHFR promoter region was examined in esophageal cancer cell lines. […] B) Expression of CHFR as determined by RT-PCR. […] C) Position of MSP primers and molecular beacon in the promoter region of the CHFR gene. A previously described gel-based MSP assay for detection of CHFR methylation in colorectal cancer was used 20.

Row | Structure (SMILES) | Overall survival when CHFR methylation present vs. absent [1] | Overall survival, docetaxel vs. paclitaxel [1] | Expression of CHFR (RNA level, RT-PCR) in CHFR-methylated cell lines [2] | Expression of CHFR (RNA level, RT-PCR) in CHFR-methylated cell lines ([2]; listed as 5-aza-2′ deoxycytidine) | Expression of CHFR (RT-PCR) in unmethylated cell lines ([2]; all other (unmethylated) esophageal cancer cell lines, express CHFR at baseline)
1 | CC(=O)O[C@@]12CO[C@@H]1C[C@H](O)[C@@]1(C)C(=O)[C@H](O)C3=C(C)[C@@H](OC(=O)[C@H](O)[C@@H](NC(=O)OC(C)(C)C)c4ccccc4)C[C@@](O)([C@@H](OC(=O)c4ccccc4)[C@H]21)C3(C)C [docetaxel] | survival advantage; also recorded: improvement in survival | no difference |  |  | 
2 | Nc1ncn([C@H]2C[C@H](O)[C@@H](CO)O2)c(=O)n1 [5-aza-2′-deoxycytidine] |  |  | re-express the gene at the RNA level | reversed | not affected
3 | CC(=O)O[C@H]1C(=O)[C@@]2(C)[C@H]([C@H](OC(=O)c3ccccc3)[C@]3(O)C[C@H](OC(=O)[C@H](O)[C@@H](NC(=O)c4ccccc4)c4ccccc4)C(C)=C1C3(C)C)[C@]1(OC(C)=O)CO[C@@H]1C[C@@H]2O [paclitaxel] | survival advantage; also recorded: significantly greater | no difference |  |  | 
